Results as given in paper PMC11904984, “The Gut Microbiota‐Xanthurenic Acid‐Aromatic Hydrocarbon Receptor Axis Mediates the Anticolitic Effects of Trilobatin” (Advanced Science, 2025).

Biological target: T1, aromatic hydrocarbon receptor (AhR) (Homo sapiens, UniProt P35869)
T1 construct: His-tagged recombinant human AhR (MST); recombinant human AhR (SPR)
T1 sequence (P35869 11-848): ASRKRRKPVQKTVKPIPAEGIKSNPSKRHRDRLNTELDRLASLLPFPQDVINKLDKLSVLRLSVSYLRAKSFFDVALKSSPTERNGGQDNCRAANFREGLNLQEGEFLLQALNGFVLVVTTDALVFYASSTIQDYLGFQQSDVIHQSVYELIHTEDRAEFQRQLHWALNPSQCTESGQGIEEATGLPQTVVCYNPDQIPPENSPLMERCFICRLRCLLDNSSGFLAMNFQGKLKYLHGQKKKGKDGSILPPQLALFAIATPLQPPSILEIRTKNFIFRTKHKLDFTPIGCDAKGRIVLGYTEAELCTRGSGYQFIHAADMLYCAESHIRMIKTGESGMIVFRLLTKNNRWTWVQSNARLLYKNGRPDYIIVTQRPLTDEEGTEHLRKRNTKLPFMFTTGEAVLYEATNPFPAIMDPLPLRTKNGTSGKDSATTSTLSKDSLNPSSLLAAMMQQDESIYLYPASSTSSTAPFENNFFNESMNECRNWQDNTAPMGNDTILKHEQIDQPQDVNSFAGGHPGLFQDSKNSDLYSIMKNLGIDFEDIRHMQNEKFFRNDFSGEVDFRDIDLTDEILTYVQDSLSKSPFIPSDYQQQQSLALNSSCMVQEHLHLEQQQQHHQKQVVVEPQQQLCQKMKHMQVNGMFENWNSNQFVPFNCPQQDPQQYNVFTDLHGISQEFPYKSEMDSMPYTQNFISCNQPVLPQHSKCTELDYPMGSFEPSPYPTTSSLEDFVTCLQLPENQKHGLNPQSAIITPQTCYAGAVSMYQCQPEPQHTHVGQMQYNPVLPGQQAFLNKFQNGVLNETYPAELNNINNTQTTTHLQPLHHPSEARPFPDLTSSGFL
Test: SPR (Biacore, CM5 chip, immobilized AhR); also MST, KD […]
Assay type: binding

Kd: 10.3 µM
Compound: O=C(CCc1ccc(O)cc1)c1c(O)cc(O[C@@H]2O[C@H](CO)[C@@H](O)[C@H](O)[C@H]2O)cc1O [TLB, Trilobatin]
